Patent publication US9518061B2, “Substituted pyrazolylpyrazole derivative and use of same as herbicide” (KYOYU AGRI CO., LTD., priority 2013, dated 2016)

Assays:
Format in all cases: in vivo
[1] = system: Echinochloa crus-galli; experiment: Paddy herbicidal activity test; settings: irrigated paddy pot, treated at 3.5 leaf stage of Echinochloa crus-galli, 30 days
Procedure: (§1) 1. Paddy Herbicidal Activity Test
(§2) Rice paddy soil was filled into a 1/10000 are pot followed by the addition of suitable amounts of water and chemical fertilizer, kneading, seeding with Echinochloa crus-galli, Monochoria vaginalis and Scirpus juncoides and maintaining in an irrigated state at a water depth of 3 cm.
(§3) Wettable powder of Target Compound (I) shown in Table 1 prepared in compliance with the preparation examples were diluted with a suitable amount of water, rice plants in the 2.0 leaf stage were transplanted during 3.5 leaf stage of Echinochloa crus-galli, and treated by dropping in chemical in the prescribed amount per are using a pipette.
(§4) After treating for 30 days in a glass greenhouse at an average atmospheric temperature of 30° C., the herbicidal efficacy thereof was investigated.
(§5) Evaluation of herbicidal efficacy was carried out by comparing growth inhibition rate (%) with an untreated group, while evaluation of phytotoxicity was carried out by comparing growth inhibition rate (%) with the state of a complete eradication group, and were evaluated at 11 levels indicated below.

[2] = system: Scirpus juncoides; experiment: Paddy herbicidal activity test; settings: irrigated paddy pot, 30 days
Procedure: as §1, §2, §3, §4, §5

[3] = system: Monochoria vaginalis; experiment: Paddy herbicidal activity test; settings: irrigated paddy pot, 30 days
Procedure: as §1, §2, §3, §4, §5

[4] = system: Rice plants; experiment: Paddy herbicidal activity test, phytotoxicity to transplanted rice; settings: rice transplanted in 2.0 leaf stage, 30 days
Procedure: as §1, §2, §3, §4, §5

[5] = system: Digitaria ciliaris; experiment: Weed foliar treatment test; settings: foliar spray at 1.0 to 2.0 leaf stage of Digitaria ciliaris, 3 weeks
Procedure: (§6) 3. Weed Foliar Treatment Test
(§7) Soil was filled into a 1/6000 are pot followed by seeding with Digitaria ciliaris, Chenopodium album and Amaranthus retroflexus, covering with soil, and cultivating in a glass greenhouse at an average atmospheric temperature of 25° C.
(§8) Wettable powder of Target Compound (I) shown in Table 1 prepared in compliance with the preparation examples were diluted with water to the prescribed amount of chemical and uniformly sprayed onto the weeds using 15 liters of sprayed water per are when Digitaria ciliaris had grown to the 1.0 to 2.0 leaf stage.
(§9) After treating for 3 weeks in a glass greenhouse at an average atmospheric temperature of 25° C., the herbicidal efficacy thereof was investigated.
(§10) Evaluation of herbicidal efficacy was carried out in the same manner as the above-mentioned Test Example 1.

[6] = system: Amaranthus retroflexus; experiment: Weed foliar treatment test; settings: foliar spray, 3 weeks
Procedure: as §6, §7, §8, §9, §10

[7] = system: Chenopodium album; experiment: Weed foliar treatment test; settings: foliar spray, 3 weeks
Procedure: as §6, §7, §8, §9, §10

[8] = system: Digitaria ciliaris; experiment: Farming soil treatment test; settings: soil surface spray prior to weed growth, 30 days
Procedure: (§11) 2. Farming Soil Treatment Test
(§12) Field soil was filled into a 1/6000 are pot followed by seeding with Digitaria ciliaris, Chenopodium album and Amaranthus retroflexus and covering with soil.
(§13) Wettable powder of compounds of formula (D shown in Table 1 prepared in compliance with the preparation examples were diluted with water to the prescribed amount of chemical and uniformly sprayed onto each soil surface layer using 10 liters of sprayed water per are prior to weed growth following seeding.
as §4, §10

[9] = system: Amaranthus retroflexus; experiment: Farming soil treatment test; settings: soil surface spray prior to weed growth, 30 days
Procedure: as §11, §12, §13, §4, §10

[10] = system: Chenopodium album; experiment: Farming soil treatment test; settings: soil surface spray prior to weed growth, 30 days
Procedure: as §11, §12, §13, §4, §10

Structure (SMILES) | herbicidal efficacy (growth inhibition rate level) Echinochloa crus-galli ([1]; 1g a.i./10a) | herbicidal efficacy (growth inhibition rate level) Echinochloa crus-galli ([1]; 5g a.i./10a) | herbicidal efficacy (growth inhibition rate level) Scirpus juncoides ([2]; 1g a.i./10a) | herbicidal efficacy (growth inhibition rate level) Scirpus juncoides ([2]; 5g a.i./10a) | herbicidal efficacy (growth inhibition rate level) Monochoria vaginalis ([3]; 1g a.i./10a) | herbicidal efficacy (growth inhibition rate level) Monochoria vaginalis ([3]; 5g a.i./10a) | phytotoxicity (growth inhibition rate level) Rice plants ([4]; 1g a.i./10a) | phytotoxicity (growth inhibition rate level) Rice plants ([4]; 5g a.i./10a) | herbicidal efficacy (growth inhibition rate level) Digitaria ciliaris ([5]; 5g a.i./10a) | herbicidal efficacy (growth inhibition rate level) Digitaria ciliaris ([5]; 10g a.i./10a) | herbicidal efficacy (growth inhibition rate level) Amaranthus retroflexus ([6]; 5g a.i./10a) | herbicidal efficacy (growth inhibition rate level) Amaranthus retroflexus ([6]; 10g a.i./10a) | herbicidal efficacy (growth inhibition rate level) Chenopodium album ([7]; 5g a.i./10a) | herbicidal efficacy (growth inhibition rate level) Chenopodium album ([7]; 10g a.i./10a) | herbicidal efficacy (growth inhibition rate level) Digitaria ciliaris ([8]; 5g a.i./10a) | herbicidal efficacy (growth inhibition rate level) Digitaria ciliaris ([8]; 10g a.i./10a) | herbicidal efficacy (growth inhibition rate level) Amaranthus retroflexus ([9]; 5g a.i./10a) | herbicidal efficacy (growth inhibition rate level) Amaranthus retroflexus ([9]; 10g a.i./10a) | herbicidal efficacy (growth inhibition rate level) Chenopodium album ([10]; 5g a.i./10a) | herbicidal efficacy (growth inhibition rate level) Chenopodium album ([10]; 10g a.i./10a)
N#Cc1cnn(-c2nn3c(c2Cl)CCCC3)c1NCCCl [Control agent 4.92] | 1 (10% to less than 20%) | 2 (20% to less than 30%) | 2 (20% to less than 30%) | 4 (40% to less than 50%) | 0 (0 (exponent): 0% to less than 10% (growth inhibition rate)) | 1 (10% to less than 20%) | 0 (0 (exponent): 0% to less than 10% (growth inhibition rate)) | 1 (10% to less than 20%) | 4 (40% to less than 50%) | 5 (50% to less than 60%) | 4 (40% to less than 50%) | 5 (50% to less than 60%) | 3 (30% to less than 40%) | 6 (60% to less than 70%) | 2 (20% to less than 30%) | 3 (30% to less than 40%) | 3 (30% to less than 40%) | 4 (40% to less than 50%) | 4 (40% to less than 50%) | 5 (50% to less than 60%)
CN(C(=O)C(F)(F)F)c1c(C#N)cnn1-c1nn2c(c1Cl)CCCC2 [Control agent 4.237] | 1 (10% to less than 20%) | 4 (40% to less than 50%) | 2 (20% to less than 30%) | 4 (40% to less than 50%) | 2 (20% to less than 30%) | 3 (30% to less than 40%) | 1 (10% to less than 20%) | 2 (20% to less than 30%) | 5 (50% to less than 60%) | 6 (60% to less than 70%) | 4 (40% to less than 50%) | 6 (60% to less than 70%) | 4 (40% to less than 50%) | 5 (50% to less than 60%) | 4 (40% to less than 50%) | 5 (50% to less than 60%) | 5 (50% to less than 60%) | 5 (50% to less than 60%) | 4 (40% to less than 50%) | 4 (40% to less than 50%)
N#Cc1cnn(-c2nn3c(c2Br)CCCC3)c1N(CCCl)C(=O)C(F)(F)F [Compound 16] | 9 (90% to less than 100%) | 10 (100%) | 8 (80% to less than 90%) | 9 (90% to less than 100%) | 7 (70% to less than 80%) | 8 (80% to less than 90%) | 0 (0 (exponent): 0% to less than 10% (growth inhibition rate)) | 1 (10% to less than 20%) | 10 (100%) | 10 (100%) | 10 (100%) | 10 (100%) | 10 (100%) | 10 (100%) | 10 (100%) | 10 (100%) | 10 (100%) | 10 (100%) | 10 (100%) | 10 (100%)
CCN(C(=O)C(F)(F)F)c1c(C#N)cnn1-c1nn2c(c1Cl)CCCC2 [Control agent 4.238] | 2 (20% to less than 30%) | 4 (40% to less than 50%) | 2 (20% to less than 30%) | 3 (30% to less than 40%) | 0 (0 (exponent): 0% to less than 10% (growth inhibition rate)) | 1 (10% to less than 20%) | 2 (20% to less than 30%) | 2 (20% to less than 30%) | 4 (40% to less than 50%) | 5 (50% to less than 60%) | 5 (50% to less than 60%) | 6 (60% to less than 70%) | 4 (40% to less than 50%) | 6 (60% to less than 70%) | 5 (50% to less than 60%) | 6 (60% to less than 70%) | 4 (40% to less than 50%) | 5 (50% to less than 60%) | 4 (40% to less than 50%) | 5 (50% to less than 60%)
COCCNc1c(C#N)cnn1-c1nn2c(c1Cl)CCCC2 [Control agent 4.63] | 2 (20% to less than 30%) | 3 (30% to less than 40%) | 1 (10% to less than 20%) | 2 (20% to less than 30%) | 1 (10% to less than 20%) | 2 (20% to less than 30%) | 0 (0 (exponent): 0% to less than 10% (growth inhibition rate)) | 1 (10% to less than 20%) | 2 (20% to less than 30%) | 4 (40% to less than 50%) | 3 (30% to less than 40%) | 6 (60% to less than 70%) | 3 (30% to less than 40%) | 5 (50% to less than 60%) | 3 (30% to less than 40%) | 3 (30% to less than 40%) | 4 (40% to less than 50%) | 5 (50% to less than 60%) | 4 (40% to less than 50%) | 5 (50% to less than 60%)
